Patent publication US12090146B2, “Substituted-pyridinyl compounds and uses thereof” (Bionomics Limited, priority 2018, dated 2024)

Assays:
[1] = target: T1, hKv3.1 (Homo sapiens, UniProt P48547); experiment: Automated patch clamp (Patchliner) whole-cell electrophysiology, Kv3.1; format: cell-based; conditions: 10 μM compound, CHO-K1 cells stably expressing hKv3.1; for Kv3.1 Activity at 10 μM Potentiation (%): % potentiation of peak current at −10 mV voltage step vs vehicle; for Kv3.1 Activity at 10 μM Voltage Shift (mV): voltage shift of the IV curve at V1/2
T1 construct: expressed in transfected cells
T1 sequence (P48547 1-511): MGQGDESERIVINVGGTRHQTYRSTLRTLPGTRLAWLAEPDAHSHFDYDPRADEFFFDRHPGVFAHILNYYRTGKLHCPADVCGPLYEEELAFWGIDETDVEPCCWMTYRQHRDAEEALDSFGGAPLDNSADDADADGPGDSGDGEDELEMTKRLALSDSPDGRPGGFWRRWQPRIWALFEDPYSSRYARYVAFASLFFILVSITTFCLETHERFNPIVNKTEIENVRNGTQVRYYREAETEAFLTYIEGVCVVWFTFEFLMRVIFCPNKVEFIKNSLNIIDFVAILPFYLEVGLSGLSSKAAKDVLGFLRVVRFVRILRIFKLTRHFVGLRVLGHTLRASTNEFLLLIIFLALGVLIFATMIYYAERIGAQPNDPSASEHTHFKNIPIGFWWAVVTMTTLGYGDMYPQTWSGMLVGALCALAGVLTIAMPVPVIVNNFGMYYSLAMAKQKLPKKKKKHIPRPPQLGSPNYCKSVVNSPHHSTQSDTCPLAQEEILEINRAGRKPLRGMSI
Summary of the method: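 CHO-K1 cells stably expressing hKv3.x recorded by whole-cell automated patch clamp at 21-23 °C, held at −80 mV with 1000 ms steps from −60 to +60 mV, vehicle then 10 uM compound (0.33% DMSO, 3-min incubation), 4 cells. Currents normalized to +60 mV; % potentiation at −10 mV and Boltzmann V1/2 shift reported.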

[2] = target: T2, hKv3.2 (Homo sapiens, UniProt Q96PR1); experiment: Automated patch clamp (Patchliner) whole-cell electrophysiology, Kv3.2; format: cell-based; conditions: 10 μM compound, CHO-K1 cells stably expressing hKv3.2; for activation at 10 µM: % potentiation of peak current at −10 mV voltage step vs vehicle; for Kv3.2 Activity at 10 μM Voltage Shift (mV): voltage shift of the IV curve at V1/2
T2 construct: expressed in transfected cells
T2 sequence (Q96PR1 1-638): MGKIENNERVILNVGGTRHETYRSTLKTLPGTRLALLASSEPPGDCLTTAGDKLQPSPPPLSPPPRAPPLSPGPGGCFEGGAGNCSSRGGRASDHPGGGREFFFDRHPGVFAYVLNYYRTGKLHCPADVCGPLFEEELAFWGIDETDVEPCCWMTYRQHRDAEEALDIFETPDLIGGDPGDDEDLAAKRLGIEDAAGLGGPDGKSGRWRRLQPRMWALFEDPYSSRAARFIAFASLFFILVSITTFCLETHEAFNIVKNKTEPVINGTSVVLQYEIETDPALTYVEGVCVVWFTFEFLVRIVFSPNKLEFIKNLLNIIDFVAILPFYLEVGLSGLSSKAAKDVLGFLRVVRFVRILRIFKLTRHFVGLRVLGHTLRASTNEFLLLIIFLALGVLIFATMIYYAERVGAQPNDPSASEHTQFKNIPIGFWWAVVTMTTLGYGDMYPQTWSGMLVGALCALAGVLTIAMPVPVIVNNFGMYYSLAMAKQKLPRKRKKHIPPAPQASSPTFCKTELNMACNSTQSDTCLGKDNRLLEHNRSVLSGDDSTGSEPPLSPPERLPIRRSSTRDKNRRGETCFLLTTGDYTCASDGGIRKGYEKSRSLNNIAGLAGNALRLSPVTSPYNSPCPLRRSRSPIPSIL
Description: hKv3.1, hKv3.2, hKv3.3, and hKv3.4 were stably expressed in CHO-K1 (Chinese hamster ovary) cells and kept under constant antibiotic selection. For in vitro assays, cells were maintained in appropriate growth medium at 37° C. and 5% CO2 in a humidified incubator.
hKv3.X expressing cells were plated in T-25 flasks for 3-4 days at 37° C. (no selection antibiotic) prior to use and grown to 80% confluence. Cells were washed twice with PBS (calcium and magnesium free) and detached with a 5-minute treatment at 37° C. with 2-3 mls of Accutase®. Cells were collected, and flask was washed in CHO-SFM II media (Life Technologies Gibco), centrifuged for 2 minutes at ˜110×g and resuspended to obtain a single cell suspension of ˜2-3×10^6 cells/ml.
The intracellular solution contained the following (in mM): KCl 50, NaCl 10, KF 60, EGTA 20, HEPES 10, adjusted to pH 7.2 with KOH and an osmolarity of 285 mOsmol. Seal enhancer was purchased from Nanion (80 mM NaCl, 3 mM KCl, 10 mM MgCl2, 35 mM CaCl2), 10 mM HEPES, pH7.4, 298 mOsmol. The external solution contained (in mM): NaCl 140, KCl 4, CaCl2) 2, MgCl2 1, HEPES 10, Glucose 5, adjusted to pH7.4 and an osmolarity of 298 mOsmol.
All compounds were initially tested at 10 uM at a final DMSO concentration of 0.33%. Compounds were dissolved in dimethylsulfoxide (DMSO) at a stock concentration of 30 mM. The compound was further diluted 1:10 to give a stock concentration of 3 mM in DMSO. The final assay solution was diluted 1:300 in External solution to give a final concentration of 10 uM. For the DMSO Control Buffer 30 uL of DMSO was added to 10 mL buffer.
All electrophysiological recordings were performed at ambient temperature (21-23° C.) using automated patch clamp (Patchliner, Nanion Technologies GmbH) in the whole-cell configuration.
Cell membrane potentials were held at −80 mV, and currents were evoked by voltage steps (1000 ms duration) from −60 to +60 mV in 10 mV increments. This was performed first with vehicle (0.33% DMSO) and then with 10 uM compound, after a 3-minute incubation period. Data was taken from 4 cells per assay.
The recordings were analysed and selected using peak current amplitude (>100 pA at the −10 mV voltage step) in the absence of compound to eliminate unsuitable cells from analysis. Peak current amplitude was measured and recorded for each voltage step and data was normalised to the maximum current at +60 mV. The normalised Kv3.x currents following addition of the compound were then compared with the currents recorded prior to compound addition (vehicle control). Positive modulation was determined as % potentiation at the voltage step of −10 mV=[current (cmpd)/current (veh)]*100−100. % potentiation ≥50% was considered acceptable. In addition, voltage shift of the IV curve at V1/2 was measured. V1/2 of ≥−5 mV was also considered acceptable. IV curves were plotted in GraphPad Prism (software version 6.0) and fitted with a Boltzmann equation, where V1/2 is the voltage at half-maximal activation.

Row | SMILES | Kv3.1 Activity at 10 μM Potentiation (%) [1] [%] | Kv3.1 Activity at 10 μM Voltage Shift (mV) [1] [mV] | activation at 10 µM [2] [%] | Kv3.2 Activity at 10 μM Voltage Shift (mV) [2] [mV]
1 | COc1cc(Oc2cncc(N3C(=O)NC(C)(C)C3=O)c2)ccc1C [Example 39, 3-[5-(3-methoxy-4-methyl-phenoxy)-3-pyridyl]-5,5-dimethyl-imidazolidine-2,4-dione] | 25 | −2.77 | 31 | −3.78
2 | O=C1NC2(CCCCC2)C(=O)N1c1ccnc(Oc2ccc3c(c2)OC(F)(F)O3)c1F [Example 93, 3-[2-[(2,2-difluoro-1,3-benzodioxol-5-yl)oxy]-3-fluoro-4-pyridyl]-1,3-diazaspiro[4.5]decane-2,4-dione] | 142 | −8.79 | 71 | −6.55
